Read-outs that look alike come from different tables or passages of the source.
What was measured:
[1] = system: SARS-CoV-2; type: cell-based; conditions: for Number of copies of viral genome (MOI = 0.05): Vero E6, 48 h; for Inhibitory activity on viral RNA load: dependence on dose (in words) / Viral nucleic acid load in vero E6 cells infected with SARS-CoV-2 (in words): 48 h after infection
[2] = system: Vero E6 cells; test: Detection of drug cytotoxicity by CCK-8 kit; type: cell-based; conditions: for Cell viability (% of negative control): 48 h
Method: The detection of drug cytotoxicity was performed by CCK-8 kit (Beoytime). Specific steps were as follows:
(1) 1×10^4 Vero E6 (ATCC) cells were inoculated into a 96-well plate and cultured at 37° C. for 8 hours.
(§1) (2) The test drug was diluted with DMSO to achieve an appropriate stock solution concentration, and then diluted with MEM medium (purchased from Gibco, Cat. No. 10370021) containing 2% FBS (purchased from Gibco, Cat. No. 16000044) to the same concentration as that for the drug treatment. The original medium in the 96-well plate was discarded, 100 μL of drug-containing MEM medium was added to the cells, and three replicate wells were made for each concentration. Negative controls (adding DMSO and medium to the cell wells without adding drug) and blank controls (no cells, adding DMSO and medium) were set. After the drug was added, the cells were cultured at 37° C. for 48 hours.
(3) 20 μL of CCK-8 solution (Beoytime) was added to the wells to be tested, mixed gently without generating air bubbles, and continued to incubate at 37° C. for 2 hours. OD450 was read on a microplate reader (purchased from Molecular Devices, model SpectraMax M5), and cell viability was calculated:
Cell viability (%)=(A(drug treatment group)−A(blank control))/(A(negative control)−A(blank control))×100%
wherein A represents reading of microplate reader.
as §1, with “of the” for “of”

| Compound | Number of copies of viral genome (MOI = 0.05) ([1]; 0.94 μM drug) | Number of copies of viral genome (MOI = 0.05) ([1]; 1.88 μM drug) | Number of copies of viral genome (MOI = 0.05) ([1]; 3.13 μM drug) | Number of copies of viral genome (MOI = 0.05) ([1]; 6.25 μM drug) | Number of copies of viral genome (MOI = 0.05) ([1]; 12.5 μM drug) | Number of copies of viral genome (MOI = 0.05) ([1]; 25 μM drug) | Inhibitory activity on viral RNA load: dependence on dose (in words) [1] | Viral nucleic acid load in vero E6 cells infected with SARS-CoV-2 (in words) [1] | Cell viability (% of negative control) ([2]; 0.78 μM drug) | Cell viability (% of negative control) ([2]; 1.56 μM drug) | Cell viability (% of negative control) ([2]; 3.13 μM drug) | Cell viability (% of negative control) ([2]; 6.25 μM drug) | Cell viability (% of negative control) ([2]; 12.5 μM drug) | Cell viability (% of negative control) ([2]; 25 μM drug) | Cell viability (% of negative control) ([2]; 50 μM drug) | Cell viability (% of negative control) ([2]; 100 μM drug) | Number of copies of viral genome (MOI = 0.05) ([1]; 50 μM drug) | Number of copies of viral genome (MOI = 0.05) ([1]; 100 μM drug) | Cell viability (% of negative control) ([2]; 200 μM drug) | Toxic effect on the cells (in words) ([2]; all the tested concentrations) | further results |
| --- | --- | --- | --- | --- | --- | --- | --- | --- | --- | --- | --- | --- | --- | --- | --- | --- | --- | --- | --- | --- | --- |
| C[C@H]1[C@H](OC(=O)CCC(=O)O)O[C@@H]2O[C@@]3(C)CC[C@H]4[C@H](C)CC[C@@H]1[C@@]24OO3 [artesunate] | 228511812 copies | 171362509 copies | 170594446 copies | 113126147 copies | 111098018 copies | 70210200 copies | dose-dependent | effectively reduced viral nucleic acid load | 100.09 % of negative control | 99.91 % of negative control | 97.52 % of negative control | 100.64 % of negative control | 93.38 % of negative control | 84.24 % of negative control | 55.44 % of negative control | 21.71 % of negative control |  |  |  |  | Inhibition of replication of SARS-CoV-2 virus genome in the infection supernatant (in words) ([1]; at 25 μM, 12.5 μM and 6.25 μM): effectively inhibit; Toxic effect on the cells (in words) ([2]; at 12.5 μM or lower): no toxic effect; Toxic effect on the cells (in words) ([2]; at 25 μM): a slight toxicity |
| C[C@H]1[C@@H](O)O[C@@H]2O[C@@]3(C)CC[C@H]4[C@H](C)CC[C@@H]1[C@@]24OO3 [dihydroartemisinin] | 111625955 copies | 68962319 copies | 90162353 copies | 55425811 copies | 31485734 copies | 23363010 copies |  |  | 93.93 % of negative control | 98.80 % of negative control | 93.03 % of negative control | 100.38 % of negative control | 88.94 % of negative control | 66.36 % of negative control | 22.18 % of negative control | 2.33 % of negative control |  |  |  |  | Toxic effect on the cells (in words) ([2]; at 6.25 μM or lower): no toxic effect; Toxic effect on the cells (in words) ([2]; at 12.5 μM): a slight toxicity |
| CO[C@H]1O[C@@H]2O[C@@]3(C)CC[C@H]4[C@H](C)CC[C@@H]([C@H]1C)[C@@]24OO3 [artemether] |  |  |  | 49305413 copies | 68497905 copies | 32850309 copies |  |  |  | 107.12 % of negative control | 103.68 % of negative control | 115.71 % of negative control | 115.49 % of negative control | 118.96 % of negative control | 120.26 % of negative control | 130.18 % of negative control | 26849476 copies | 3326694 copies | 132.83 % of negative control | no toxic effect | Number of copies of viral genome (MOI = 0.05) ([1]; 200 μM drug): 250314 copies |
| C=C1C(=O)O[C@@]23[C@H]1CC[C@@H](C)[C@@H]2CC[C@@]1(C)O[C@@H]31 [arteannuin B] |  |  | 99188163 copies | 98310684 copies | 13307075 copies | 342654 copies | dose-dependent | effectively reduced viral nucleic acid load | 93.55 % of negative control | 90.63 % of negative control | 94.86 % of negative control | 102.66 % of negative control | 111.44 % of negative control | 95.10 % of negative control | 74.40 % of negative control | 26.24 % of negative control | 176411 copies |  |  |  | Number of copies of viral genome (MOI = 0.05) ([1]; 1.56 μM drug): 99554711 copies; Inhibition of replication of SARS-CoV-2 virus genome in the infection supernatant (in words) ([1]; at 50 μM, 25 μM and 12.5 μM): effectively inhibit; Toxic effect on the cells (in words) ([2]; at 25 μM or lower): no toxic effect; Toxic effect on the cells (in words) ([2]; at 50 μM): a certain toxicity |
| C[C@@H]1CC[C@H]2[C@@H](C)C(=O)O[C@@H]3O[C@@]4(C)CC[C@@H]1[C@]32OO4 [artemisinin] |  |  |  | 79058074 copies | 72012135 copies | 61918172 copies | dose-dependent | effectively reduced viral nucleic acid load |  | 98.45 % of negative control | 101.55 % of negative control | 104.23 % of negative control | 112.55 % of negative control | 104.26 % of negative control | 110.71 % of negative control | 109.14 % of negative control | 31079912 copies | 37237188 copies | 97.14 % of negative control | no toxic effect | Number of copies of viral genome (MOI = 0.05) ([1]; 150 μM drug): 25440652 copies; Inhibition of replication of SARS-CoV-2 virus genome in the infection supernatant (in words) ([1]; at 150 μM, 100 μM and 50 μM): effectively inhibit |

— patent US20230293485A1, “APPLICATION OF ARTEMISININ COMPOUND IN TREATMENT OF CORONAVIRUS INFECTION” (ACADEMY OF MILITARY MEDICAL SCIENCES, priority 2020, published 2023)
